Source: patent publication US11976083B2, “Inhibitors of peptidylarginine deiminases” (Gilead Sciences, Inc., priority 2020, dated 2024)

Target: T1, human PAD4 (Homo sapiens, UniProt Q9UM07)
T1 construct: human PAD4 (NM_012387), A2-P663, was PCR amplified; His-SUMO (N, cleaved yes); made in house; host or cells: E. coli BL21(DE3)
Assay: In vitro PAD4 BAEE biochemical assay
Conditions: BAEE substrate 3 mM, 5 nM PAD4, 2 mM calcium chloride; geometric mean of multiple experiments
Procedure, shortened: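 Fluorescence read-out (ex 405/em 535 nm) of isoindole formed from ammonia, o-phthalaldehyde and DTT after EDTA stop. Reaction: 5 nM PAD4, 2 mM CaCl2, 3 mM BAEE, 2 h, 25 °C, after 30 min enzyme–compound preincubation. Normalised to BB-Cl-Amidine (50 µM) and DMSO controls.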

T1 sequence (Q9UM07 2-663): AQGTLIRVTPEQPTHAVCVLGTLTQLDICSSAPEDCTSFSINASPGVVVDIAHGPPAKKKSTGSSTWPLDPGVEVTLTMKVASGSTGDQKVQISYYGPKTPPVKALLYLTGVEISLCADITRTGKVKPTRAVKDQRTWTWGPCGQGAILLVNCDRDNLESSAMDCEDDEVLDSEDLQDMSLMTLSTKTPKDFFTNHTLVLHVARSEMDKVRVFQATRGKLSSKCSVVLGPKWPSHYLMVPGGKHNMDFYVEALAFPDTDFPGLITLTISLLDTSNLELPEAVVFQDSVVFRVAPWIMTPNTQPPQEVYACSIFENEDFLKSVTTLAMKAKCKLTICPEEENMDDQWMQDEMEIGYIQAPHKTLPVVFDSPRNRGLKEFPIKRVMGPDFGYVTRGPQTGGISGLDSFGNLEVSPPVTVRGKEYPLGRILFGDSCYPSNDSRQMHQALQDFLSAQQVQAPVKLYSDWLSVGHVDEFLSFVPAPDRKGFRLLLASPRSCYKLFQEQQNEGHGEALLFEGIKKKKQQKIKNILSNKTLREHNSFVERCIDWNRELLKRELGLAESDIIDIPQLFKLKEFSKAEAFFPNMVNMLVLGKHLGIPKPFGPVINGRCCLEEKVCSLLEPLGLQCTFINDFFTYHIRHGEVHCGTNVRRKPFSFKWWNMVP

Row | SMILES | IC50
1 | C[C@@H]1[C@H](N)CCCN1C(=O)c1cc(F)c2c(c1)nc(-c1cc3ccc4nc3n1CC(F)(F)CCC[C@@H]1C[C@H]1C(=O)N[C@@H]4C)n2[C@H]1C[C@@H]1F [Example 835, (2~{R},5~{R},7~{R})-14-[5-[(2~{R},3~{R})-3-amino-2-methyl-piperidine-1-carbonyl]-7-fluoro-1-[(1~{S},2~{S})-2-fluorocyclopropyl]benzimidazol-2-yl]-11,11-difluoro-2-methyl-3,13,19-triazatetracyclo[11.5.2.0^ {5,7}.0^{16,20}] icosa-1(19),14,16(20), 17-tetraen-4-one] | 16 nM
2 | CO[C@@H]1CCN(C(=O)c2cc(F)c3c(c2)nc(-c2cc4ccc5nc4n2CCCCCc2ccnc(C(F)(F)F)c2C(=O)N[C@@H]5C)n3C2CC2)C[C@@H]1N [Example 836, (2~{R})-17-[5-[(3~{S}, 4~{R})-3-amino-4-methoxy-piperidine-1-carbonyl]-1-cyclopropyl-7-fluoro-benzimidazol-2-yl]-2-methyl-6-(trifluoromethyl)-3,7,16,22-tetrazatetracyclo[14.5.2.0^ {5,10}.0^{19,23}] tricosa-1(22),5(10), 6,8,17,19(23),20-heptaen-4-one] | 32 nM
3 | CO[C@@H]1CCN(C(=O)c2cc(F)c3c(c2)nc(-c2cc4ccc5nc4n2CC(F)(F)CCC[C@@H]2C[C@H]2C(=O)N[C@@H]5C)n3[C@@H]2C[C@H]2F)C[C@@H]1N [Example 837, (2~{R},5~{R},7~{R})-14-[5-[(3~{S},4~{R})-3-amino-4-methoxy-piperidine-1-carbonyl]-7-fluoro-1-[(1~{R},2~{R})-2-fluorocyclopropyl]benzimidazol-2-yl]-11,11-difluoro-2-methyl-3,13,19-triazatetracyclo [11.5.2.0^{5,7}.0^{16,20}] icosa-1(19),14,16(20), 17-tetraen-4-one] | 30 nM
4 | C[C@@H]1[C@H](N)CCCN1C(=O)c1cc(F)c2c(c1)nc(-c1cc3ccc4nc3n1CCCCCc1nc(C(F)(F)F)ccc1C(=O)N[C@@H]4C)n2C1CC1 [Example 838, (2~{R})-17-[5-[(2~{R}, 3~{R})-3-amino-2-methyl-piperidine-1-carbonyl]-1-cyclopropyl-7-fluoro-benzimidazol-2-yl]-2-methyl-8-(trifluoromethyl)-3,9,16,22-tetrazatetracyclo[14.5.2.0^ {5,10).0^{19,23}] tricosa-1(22),5(10), 6,8,17,19(23),20-heptaen-4-one] | 49 nM
5 | C[C@H]1NC(=O)c2nc3ccccc3nc2CCCCCn2c(-c3nc4cc(C(=O)N5C[C@H](N)[C@@H]6CC[C@H]5C6)cc(F)c4n3C3CC3)cc3ccc1nc32 [Example 839, (2~{R})-21-[5-[(1~ {S},4~{R},5~{R})-4-amino-2-azabicyclo[3.2.1]octane-2-carbonyl]-1-cyclopropyl-7-fluoro-benzimidazol-2-yl]-2-methyl-3,6,13,20,26-pentazapentacyclo[18.5.2.0^ {5,14}.0^{7,12}.0^ {23,27}]heptacosa-1(26),5(14), 6,8,10,12,21,23(27),24-nonaen-4-one] | 13 nM
6 | C[C@H]1NC(=O)c2ccc(Cl)nc2CCCCCn2c(-c3nc4cc(C(=O)N5C[C@H](N)[C@@H]6CC[C@H]5C6)cc(F)c4n3[C@H]3C[C@@H]3F)cc3ccc1nc32 [Example 840, (2~{R})-17-[5-[(1~{S), 4~{R},5~{R})-4-amino-2-azabicyclo[3.2.1]octane-2-carbonyl]-7-fluoro-1-[(1~ {S},2~{S})-2-fluorocyclopropyl]benzimidazol-2-yl]-8-chloro-2-methyl-3,9,16,22-tetrazatetracyclo[14.5.2.0^ {5,10).0^{19,23}]tricosa-1(22), 5(10),6,8,17,19(23),20-heptaen-4-one] | 61 nM
7 | C[C@H]1NC(=O)c2c(ccc3cccnc23)CCCCCn2c(-c3nc4cc(C(=O)N5C[C@H](N)[C@@H]6CC[C@H]5C6)cc(F)c4n3C3CC3)cc3ccc1nc32 [Example 841, (2~{R})-21-[5-[(1~{S},4~{R}, 5~{R})-4-amino-2-azabicyclo [3.2.1]octane-2-carbonyl]-1-cyclopropyl-7-fluoro-benzimidazol-2-yl]-2-methyl-3,7,20,26-tetrazapentacyclo [18.5.2.0^{5,14}.0^{6,1 1}.0^{23,27}]heptacosa-1(26),5(14),6(11),7,9,12,21, 23(27),24-nonaen-4-one] | 17 nM
8 | COc1cc(C(=O)N2C[C@H](N)[C@@H]3CC[C@H]2C3)cc2nc(-c3cc4ccc5nc4n3CCCCCc3nc(C(F)(F)F)ccc3C(=O)N[C@@H]5C)n(C)c12 [Example 842, (2~{R})-17-[5-[(1~{S},4~{R},5~ {R})-4-amino-2-azabicyclo[3.2.1]octane-2-carbonyl]-7-methoxy-1-methyl-benzimidazol-2-yl]-2-methyl-8-(trifluoromethyl)-3,9,16,22-tetrazatetracyclo[14.5.2.0^ {5,10}.0^{19,23}]tricosa-1(22), 5(10),6,8,17,19(23),20-heptaen-4-one] | 49 nM
9 | C[C@H]1NC(=O)c2ccc(C(F)F)nc2CCCCCn2c(-c3nc4cc(C(=O)N5C[C@H](N)[C@@H]6CC[C@H]5C6)cc(F)c4n3C3CC3)cc3ccc1nc32 [Example 843, (2~{R})-17-[5-[(1~{S},4~ {R},5~{R})-4-amino-2-azabicyclo[3.2.1]octane-2-carbonyl]-1-cyclopropyl-7-fluoro-benzimidazol-2-yl]-8-(difluoromethyl)-2-methyl-3,9,16,22-tetrazatetracyclo [14.5.2.0^{5,10}.0^{19,23}] tricosa-1(22),5(10),6,8,17, 19(23),20-heptaen-4-one] | 18 nM
10 | C[C@H]1NC(=O)c2cnc(C(F)(F)F)cc2CCCCCn2c(-c3nc4cc(C(=O)N5C[C@H](N)[C@@H]6CC[C@H]5C6)cc(F)c4n3C3CC3)cc3ccc1nc32 [Example 844, (2~{R})-17-[5-[(1~{S},4~ {R},5~{R})-4-amino-2-azabicyclo [3.2.1]octane-2-carbonyl]-1-cyclopropyl-7-fluoro-benzimidazol-2-yl]-2-methyl-8-(trifluoromethyl)-3,7,16,22-tetrazatetracyclo[14.5.2.0^ {5,10).0^{19,23}]tricosa-1(22),5(10),6,8,17,19(23),20-heptaen-4-one] | 35 nM
11 | COc1cc(C(=O)N2C[C@H](N)[C@@H]3CC[C@H]2C3)cc2nc(-c3cc4ccc5nc4n3CCCCCc3nccc(Cl)c3C(=O)N[C@@H]5C)n(C)c12 [Example 845, (2~{R})-17-[5-[(1~{S},4~{R}, 5~{R})-4-amino-2-azabicyclo [3.2.1]octane-2-carbonyl]-7-methoxy-1-methyl-benzimidazol-2-yl]-6-chloro-2-methyl-3,9,16,22-tetrazatetracyclo[14.5.2.0^ {5,10}.0^{19,23}]tricosa-1(22),5(10),6,8,17,19(23),20-heptaen-4-one] | 16 nM
12 | C[C@H]1NC(=O)c2ccc(Cl)nc2CCCCCn2c(-c3nc4cc(C(=O)N5C[C@H](N)[C@@H]6CC[C@H]5C6)cc(F)c4n3[C@H]3C[C@H]3F)cc3ccc1nc32 [Example 846, (2~{R})-17-[5-[(1~{S),4~{R}, 5~{R})-4-amino-2-azabicyclo [3.2.1]octane-2-carbonyl]-7-fluoro-1-[(1~{S},2~{R})-2-fluorocyclopropyl]benzimidazol-2-yl]-8-chloro-2-methyl-3,9,16,22-tetrazatetracyclo[14.5.2.0^ {5,10).0^{19,23}]tricosa-1(22),5(10),6,8,17,19(23),20-heptaen-4-one] | 27 nM
13 | COc1cc(C(=O)N2C[C@H](N)[C@@H]3CC[C@H]2C3)cc2nc(-c3cc4ccc5nc4n3CCCCCc3nc(C(F)(F)F)ccc3C(=O)N[C@@H]5C)n(C3CC3)c12 [Example 847, (2~{R})-17-[5-[(1~{S},4~{R}, 5~{R})-4-amino-2-azabicyclo [3.2.1]octane-2-carbonyl]-1-cyclopropyl-7-methoxy-benzimidazol-2-yl]-2-methyl-8-(trifluoromethyl)-3,9,16,22-tetrazatetracyclo[14.5.2.0^ {5,10}.0^{19,23}]tricosa-1(22),5(10),6,8,17,19(23),20-heptaen-4-one] | 82 nM
14 | COc1cc(C(=O)N2CC[C@@H](OC)[C@@H](N)C2)cc2nc(-c3cc4ccc5nc4n3CC(F)(F)CCC[C@@H]3C[C@H]3C(=O)N[C@@H]5C)n(C)c12 [Example 848, (2~{R},5~{R},7~{R})-14-[5-[(3~{S},4~{R})-3-amino-4-methoxy-piperidine-1-carbonyl]-7-methoxy-1-methyl-benzimidazol-2-yl]-11,11-difluoro-2-methyl-3,13,19-triazatetracyclo[11.5.2.0^ {5,7}.0^{16,20}]icosa-1(19),14,16(20),17-tetraen-4-one] | 33 nM
15 | COc1cc(C(=O)N2C[C@H](N)CC[C@@H]2C)cc2nc(-c3cc4ccc5nc4n3CC(F)(F)CCC[C@@H]3C[C@H]3C(=O)N[C@@H]5C)n(C)c12 [Example 849, (2~{R},5~{R},7~{R})-14-[5-[(2~{S},5~{R})-5-amino-2-methyl-piperidine-1-carbonyl]-7-methoxy-1-methyl-benzimidazol-2-yl]-11,11-difluoro-2-methyl-3,13,19-triazatetracyclo[11.5.2.0^ {5,7}.0^{16,20}]icosa-1(19), 14,16(20),17-tetraen-4-one] | 15 nM
16 | COc1cc(C(=O)N2CC[C@@H](OC(F)F)[C@@H](N)C2)cc2nc(-c3cc4ccc5nc4n3CC(F)(F)CCC[C@@H]3C[C@H]3C(=O)N[C@@H]5C)n(C)c12 [Example 850, (2~{R},5~{R},7~{R})-14-[5-[(3~{S},4~{R})-3-amino-4-(difluoromethoxy)piperidine-1-carbonyl]-7-methoxy-1-methyl-benzimidazol-2-yl]-11,11-difluoro-2-methyl-3,13,19-triazatetracyclo[11.5.2.0^ {5,7}.0^{16,20}]icosa-1(19), 14,16(20),17-tetraen-4-one] | 64 nM
